The source of these data is patent US20260078119A1, “DEGRADER COMPOUNDS AND USES THEREOF” (Bristol-Myers Squibb Company, priority 2024, published 2026).

One test concerns the target T1, FAK (Homo sapiens, UniProt Q05397).
T1 construct: homozygous knock-in of a HiBiT tag (Promega Corporation, Madison, WI) to the C-terminus of the FAK gene in its natural genomic locus; endogenous in cells; host or cells: JHH-4-FAK-HiBiT clone d01 (CRISPR-Cas9 knock-in at the endogenous locus)
Description: FAK-HiBiT Degradation Assay. The test is classed as cell-based. The following applies: for DC50: JHH-4-FAK-HiBiT clone d01 cells, two hours incubation, 10-point dose response, 3-fold dilution starting at 1 μM, Nano-Glo HiBiT luminescence, read-out: FAK HiBiT EC50; for FAK HiBiT Ymin: lower limit of the four parameter fit (value A), Ymax derived using DMSO control, JHH-4-FAK-HiBiT cells, two hours. An outline of the steps:
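JHH-4 cells with homozygous CRISPR knock-in of C-terminal HiBiT on endogenous FAK, treated 2 h at 37 °C with compounds in 10-point 3-fold series from 1 μM. HiBiT lytic luminescence read; EC50 from four-parameter logistic fit, Ymax set by DMSO control, Ymin as lower fit limit.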

A further test concerns CAL-51 cells. Description: CAL-51 Cell Proliferation Assay. Type of test: cell-based. The settings on record: for EC50: Homo sapiens, 120 hours incubation, 10-point dose response, 4-fold dilutions starting at 10 μM, Cell-Titer-Glo, read-out: CAL-51 Prolif EC50; for CAL-51 Prolif Ymin: minimal percent of DMSO control observed in the concentrations tested (Ymin-obs), 120 hours. An outline of the steps:
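Cells seeded at 350/well in RPMI complete medium onto 10-point, 4-fold compound dilutions from 10 μM (0.1% DMSO), in duplicate, and grown 120 h at 37 °C. CellTiter-Glo luminescence, blank-subtracted and normalised to DMSO, was fitted with a four-parameter logistic to give EC50; Ymin-obs is the lowest observed percent of DMSO control.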

T1 sequence (Q05397 whole entry): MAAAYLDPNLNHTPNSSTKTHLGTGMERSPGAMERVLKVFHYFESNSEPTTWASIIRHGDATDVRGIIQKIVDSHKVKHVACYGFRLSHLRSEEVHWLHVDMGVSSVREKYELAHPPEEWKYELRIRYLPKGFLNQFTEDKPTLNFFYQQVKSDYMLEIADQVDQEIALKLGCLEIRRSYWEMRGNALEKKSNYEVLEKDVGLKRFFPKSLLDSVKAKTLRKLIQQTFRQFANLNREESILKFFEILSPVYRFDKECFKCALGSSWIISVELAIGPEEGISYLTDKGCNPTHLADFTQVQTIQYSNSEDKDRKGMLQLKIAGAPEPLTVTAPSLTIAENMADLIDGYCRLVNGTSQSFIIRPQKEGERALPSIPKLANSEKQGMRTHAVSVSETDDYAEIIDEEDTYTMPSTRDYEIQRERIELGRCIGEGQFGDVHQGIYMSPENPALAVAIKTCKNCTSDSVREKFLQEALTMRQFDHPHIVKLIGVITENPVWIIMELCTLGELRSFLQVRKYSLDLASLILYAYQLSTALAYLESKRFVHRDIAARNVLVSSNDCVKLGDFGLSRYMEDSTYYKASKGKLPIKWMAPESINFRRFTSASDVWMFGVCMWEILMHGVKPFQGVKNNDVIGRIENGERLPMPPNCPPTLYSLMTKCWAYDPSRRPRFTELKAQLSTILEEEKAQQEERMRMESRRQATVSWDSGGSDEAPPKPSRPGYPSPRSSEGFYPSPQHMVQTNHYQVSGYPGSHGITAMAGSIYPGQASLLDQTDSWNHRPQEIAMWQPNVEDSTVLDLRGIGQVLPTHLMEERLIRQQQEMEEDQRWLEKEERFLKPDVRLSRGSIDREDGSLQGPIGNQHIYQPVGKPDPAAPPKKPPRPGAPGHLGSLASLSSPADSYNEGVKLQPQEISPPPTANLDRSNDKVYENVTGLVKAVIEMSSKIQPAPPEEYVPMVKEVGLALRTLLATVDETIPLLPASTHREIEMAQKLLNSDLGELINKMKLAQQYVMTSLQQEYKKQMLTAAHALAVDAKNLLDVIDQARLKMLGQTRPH

Usually EC50 stands for the concentration needed to bring the measured effect to its halfway point. Turning to `O=C1CC[C@@H](N2Cc3cc(Cn4ncc5c(-c6ncc(C7COC7)cc6Cl)cc(N6CC(F)C6)nc54)ccc3C2=O)C(=O)N1` (single isomer, unassigned) [Example 127], at FAK, the DC50 turned out to be 0.213 µM and the “FAK HiBiT Ymin” value was 42.87. Moreover, in the test with CAL-51 cells, the EC50 amounted to 0.00894 µM and the “CAL-51 Prolif Ymin” value amounted to 37.97.
The matching figures for `O=C1CCC(N2Cc3cc(Cn4cnc5c(-c6ncc(F)cc6Cl)cc(N6CC(F)C6)nc54)ccc3C2=O)C(=O)N1` (stereo not shown) [Example 25, 3-(5-((7-(3-chloro-5-fluoropyridin-2-yl)-5-(3-fluoroazetidin-1-yl)-3H-imidazo[4,5-b]pyridin-3-yl)methyl)-1-oxoisoindolin-2-yl)piperidine-2,6-dione]: 0.0211 µM, 5.97, 0.146 µM and 46.08.
Taken in the same sequence, the figures for `O=C1CCC(N2Cc3cc(Cn4ncc5c(-c6ncc(Cl)cc6F)cc(N6CC(F)C6)nc54)ccc3C2=O)C(=O)N1` (stereo not shown) [Example 90, 3-(5-{[4-(5-chloro-3-fluoropyridin-2-yl)-6-(3-fluoroazetidin-1-yl)-1H-pyrazolo[3,4-b]pyridin-1-yl]methyl}-1-oxo-2,3-dihydro-1H-isoindol-2-yl)piperidine-2,6-dione] were 0.0136 µM, 15.97, 0.0104 µM and 37.96.
With `CN(c1cc(-c2ncc(C(F)(F)F)cc2Cl)c2cnn(Cc3ccc4c(c3)CN([C@H]3CCC(=O)NC3=O)C4=O)c2n1)C1COC1` [Example 99, (3S)-3-[5-({4-[3-chloro-5-(trifluoromethyl)pyridin-2-yl]-6-[methyl(oxetan-3-yl)amino]-1H-pyrazolo[3,4-b]pyridin-1-yl}methyl)-1-oxo-2,3-dihydro-1H-isoindol-2-yl]piperidine-2,6-dione], on FAK, the DC50 is 0.0253 µM and the “FAK HiBiT Ymin” value was 13.33. Further, in the test on CAL-51 cells, the EC50 was 0.117 µM and the “CAL-51 Prolif Ymin” value is listed as 36.78.
Turning to `C[C@]1(O)CCN(c2cc(-c3ccc(C#N)cc3F)c3cnn(Cc4ccc5c(c4)CN(C4CCC(=O)NC4=O)C5=O)c3n2)C1` (stereo partly drawn) [Example 115, 4-(1-{[2-(2,6-dioxopiperidin-3-yl)-1-oxo-2,3-dihydro-1H-isoindol-5-yl]methyl}-6-[(3S)-3-hydroxy-3-methylpyrrolidin-1-yl]-1H-pyrazolo[3,4-b]pyridin-4-yl)-3-fluorobenzonitrile], at FAK, the DC50 was found to be 0.0653 µM and the “FAK HiBiT Ymin” value is given as 53.22. In addition, in the test on CAL-51 cells, the EC50 came out at 0.118 µM and the “CAL-51 Prolif Ymin” value came to 59.97.
Taken in the same sequence, the figures for `O=C1CC[C@H](N2Cc3cc(Cn4ccc5c(-c6ncc(C(F)(F)F)cc6Cl)nc(N6CC(F)C6)nc54)ccc3C2=O)C(=O)N1` [Example 28, (S)-3-(5-((4-(3-chloro-5-(trifluoromethyl)pyridin-2-yl)-2-(3-fluoroazetidin-1-yl)-7H-pyrrolo[2,3-d]pyrimidin-7-yl)methyl)-1-oxoisoindolin-2-yl)piperidine-2,6-dione] were 0.00038 µM, 7.63, 0.00045 µM and 25.69.
Taken in the same sequence, the figures for `Cc1cnc(-c2cc(N3CC(F)C3)nc3c2cnn3Cc2ccc3c(c2)CN(C2CCC(=O)NC2=O)C3=O)c(Cl)c1` (stereo not shown) [Example 57, 3-(5-{[4-(3-chloro-5-methylpyridin-2-yl)-6-(3-fluoroazetidin-1-yl)-1H-pyrazolo[3,4-b]pyridin-1-yl]methyl}-1-oxo-2,3-dihydro-1H-isoindol-2-yl)piperidine-2,6-dione] were 0.00341 µM, 8.26, 0.00151 µM and 25.51.
With `O=C1CCC(N2Cc3cc(Cn4ncc5c(-c6ncc(F)cc6Cl)cc(N6CC[C@H](O)C6)nc54)ccc3C2=O)C(=O)N1` (stereo partly drawn) [Example 100, 3-(5-{[4-(3-chloro-5-fluoropyridin-2-yl)-6-[(3S)-3-hydroxypyrrolidin-1-yl]-1H-pyrazolo[3,4-b]pyridin-1-yl]methyl}-1-oxo-2,3-dihydro-1H-isoindol-2-yl)piperidine-2,6-dione], at FAK, the DC50 was determined as 0.0268 µM and the “FAK HiBiT Ymin” value came out at 9.53. Also, in the test on CAL-51 cells, the EC50 worked out at 0.0134 µM and the “CAL-51 Prolif Ymin” value is 29.27.
The matching figures for `O=C1CC[C@H](N2Cc3cc(Cn4ncc5c(-c6ncc(C(F)(F)F)cc6Cl)cc(N6CC(O)C6)nc54)ccc3C2=O)C(=O)N1` [Example 113, (3S)-3-[5-({4-[3-chloro-5-(trifluoromethyl)pyridin-2-yl]-6-(3-hydroxyazetidin-1-yl)-1H-pyrazolo[3,4-b]pyridin-1-yl}methyl)-1-oxo-2,3-dihydro-1H-isoindol-2-yl]piperidine-2,6-dione]: 0.0518 µM, 21.00, 0.00928 µM and 38.05.
Taken in the same sequence, the figures for `O=C1CC[C@H](N2Cc3c(ccc(Cn4ncc5c(-c6ncc(F)cc6Cl)cc(N6CC(F)C6)nc54)c3F)C2=O)C(=O)N1` (single isomer, unassigned) [Example 61] were 0.0036 µM, 7.65, 0.0071 µM and 35.56.
The matching figures for `O=C1CCC(N2Cc3cc(Cn4ncc5c(-c6ncc(F)cc6Cl)c(F)c(N6CC(F)C6)nc54)ccc3C2=O)C(=O)N1` (stereo not shown) [Example 31, 3-(5-{[4-(3-chloro-5-fluoropyridin-2-yl)-5-fluoro-6-(3-fluoroazetidin-1-yl)-1H-pyrazolo[3,4-b]pyridin-1-yl]methyl}-1-oxo-2,3-dihydro-1H-isoindol-2-yl)piperidine-2,6-dione]: 0.00076 µM, 8.92, 0.00389 µM and 34.80.
In the case of `CN(c1cc(-c2ncc(C(F)(F)F)cc2Cl)c2cnn(Cc3ccc4c(c3)CN(C3CCC(=O)NC3=O)C4=O)c2n1)C1CCOCC1` (stereo not shown) [Example 94, 3-[5-({4-[3-chloro-5-(trifluoromethyl)pyridin-2-yl]-6-[methyl(oxan-4-yl)amino]-1H-pyrazolo[3,4-b]pyridin-1-yl}methyl)-1-oxo-2,3-dihydro-1H-isoindol-2-yl]piperidine-2,6-dione], on FAK, the DC50 amounted to 0.0183 µM and the “FAK HiBiT Ymin” value turned out to be 23.92. Further, in the test on CAL-51 cells, the EC50 is 0.00552 µM and the “CAL-51 Prolif Ymin” value is listed as 47.74.
On to `Cc1nc2c(-c3ncc(F)cc3Cl)cc(N3CC(F)C3)nc2n1Cc1ccc2c(c1)CN(C1CCC(=O)NC1=O)C2=O` (stereo not shown) [Example 24, 3-(5-((7-(3-chloro-5-fluoropyridin-2-yl)-5-(3-fluoroazetidin-1-yl)-2-methyl-3H-imidazo[4,5-b]pyridin-3-yl)methyl)-1-oxoisoindolin-2-yl)piperidine-2,6-dione], for which, at FAK, the DC50 was found to be 0.0296 µM and the “FAK HiBiT Ymin” value came to 5.76. In the test with CAL-51 cells, the EC50 was 0.00405 µM and the “CAL-51 Prolif Ymin” value came to 23.72.
The matching figures for `O=C1CCC(N2Cc3cc(Cn4ncc5c(-c6nnccc6C(F)(F)F)cc(N6CC(F)C6)nc54)ccc3C2=O)C(=O)N1` (stereo not shown) [Example 129, 3-(5-{[6-(3-fluoroazetidin-1-yl)-4-[4-(trifluoromethyl)pyridazin-3-yl]-1H-pyrazolo[3,4-b]pyridin-1-yl]methyl}-1-oxo-2,3-dihydro-1H-isoindol-2-yl)piperidine-2,6-dione]: at least 1 µM, 95.34, 0.499 µM and 92.49.
The matching figures for `O=C1CC[C@H](N2Cc3cc(Cn4ncc5c(-c6ncc(F)cc6Cl)cc(N6CC(F)C6)nc54)cc(F)c3C2=O)C(=O)N1` [Example 42, (3S)-3-(5-{[4-(3-chloro-5-fluoropyridin-2-yl)-6-(3-fluoroazetidin-1-yl)-1H-pyrazolo[3,4-b]pyridin-1-yl]methyl}-7-fluoro-1-oxo-2,3-dihydro-1H-isoindol-2-yl)piperidine-2,6-dione]: 0.00124 µM, 5.70, 0.00192 µM and 24.80.
In the case of `CN(c1cc(-c2ncc(C(F)(F)F)cc2Cl)c2cnn(Cc3ccc4c(c3)CN([C@H]3CCC(=O)NC3=O)C4=O)c2n1)[C@H]1C[C@@H](O)C1` [Example 120, (3R)-3-[5-({4-[3-chloro-5-(trifluoromethyl)pyridin-2-yl]-6-{methyl[(1s,3s)-3-hydroxycyclobutyl]amino}-1H-pyrazolo[3,4-b]pyridin-1-yl}methyl)-1-oxo-2,3-dihydro-1H-isoindol-2-yl]piperidine-2,6-dione], at FAK, the DC50 was 0.0871 µM and the “FAK HiBiT Ymin” value turned out to be 12.66. In addition, in the test with CAL-51 cells, the EC50 is 0.00303 µM and the “CAL-51 Prolif Ymin” value is 28.57.
